# Assay results taken from US20090294381A1, “METHODS FOR CONTROLLING PH IN WATER SANITIZED BY CHEMICAL OR ELECTROLYTIC CHLORINATION” (ZODIAC POOL CARE, INC., priority 2005, published 2009).
# Where two headings read alike, the source gives them in different places.
# Key:
# [1] = cited from earlier work
# Chlorella vulgaris = assay: Algae growth in nutrient medium, serial dilution tubes, visual bottom pellicle formation; format: cell-based; design: key: +++ indicates good growth; ++ indicates scant growth; + indicates very low growth; − indicates no growth
# Method: An algae nutrient medium was prepared by mixing the following with 940 mL deionized (DI) water:
# Primary stocks were made by including each of the test compounds in the table below in DI as 100 mL aliquots of 1000 ppm solutions. Working stocks in algae media were made as 128 ppm solutions (13 mL/100 mL DI). These solutions were serially diluted and placed into disposable borosilicate tubes, each containing 5 mL of algae medium. The highest theoretical concentration of each compound tested was 64 ppm; as a result of the serial dilution, concentrations of 32, 16, 8, 4, 2, 1, 0.5, and 0.25 ppm were tested. Each tube as inoculated with 50 μL of 10-12 day old Chlorella vulgaris, having an approximate density of 3.0×10^5 cells/mL. Growth was evaluated in a semi-quantitative fashion by visually observing bottom pellicle formation, which was compared to 2 controls. In the table below, +++ indicates good growth, ++ indicates scant growth, + indicates very low growth, and − indicates no growth.
# [2] = Phosphate removal and turbidity in 250 gallon mini-pool
# Method: A 250 gallon mini-pool was filled with tap water and balanced with calcium chloride, sodium bicarbonate, sodium bisulfate, and sodium hypochlorite. Sufficient sodium phosphate was added to the pool to give a phosphate concentration of approximately 1.0 ppm (calculated as ortho-phosphate). While mixing, lanthanum chloride was added to the water, where it combined with the phosphate and caused formation of a precipitate. The amount of lanthanum chloride added was sufficient to reduce phosphate concentration to less than 100 ppb. The water was allowed to mix (via stirring) for 15 minutes. […] Samples were taken at intervals during the study, and analyzed for turbidity, phosphate level, and lanthanum level, and in some cases, for pH and total alkalinity. […]
# A 250 gallon mini-pool was filled with tap water and balanced with calcium chloride, sodium bicarbonate, sodium bisulfate, and sodium hypochlorite. Sufficient sodium phosphate was added to the pool to give a phosphate concentration of approximately 1.0 ppm (calculated as ortho-phosphate). […] Samples were taken at intervals during the study, and analyzed for turbidity, phosphate level, and zinc level, and in some cases, for pH and total alkalinity. […]
# [3] = Phosphate removal in full sized swimming pools via Nature2 G cartridge; conditions: Example 6: 7 pools, 15,000 to 27,000 gallons, about 1.0 ppm phosphate, 900 grams per cartridge
# Excerpt: Sufficient sodium phosphate was broadcast to water in 7 full sized swimming pools, ranging in size from 15,000 to 27,000 gallons, to give a phosphate concentration of about 1.0 ppm (calculated as ortho-phosphate). The pools were allowed to mix for at least one hour. A Nature^2 G sized cartridge containing 900 grams of lanthanum chloride was connected to each pool water circulation system, and pumping through the cartridge was initiated, delivering lanthanum to the water. Water samples were taken at intervals and analyzed to determine turbidity, phosphate levels, and lanthanum levels, and in some cases, pH and total alkalinity. Six of the pools had surface cleaners in constant use and the remaining pool used a pool service. Each of the pools was filtered using a pleated cartridge filter. Turbidity of 6 of the 7 pools returned to starting levels (before lanthanum was added to precipitate out the phosphate) after 48 hours. A minimum of 90% of phosphate was removed from each of the pools.
compound,measurement,setting,value
[OH][Al]([OH])[OH] [Al(OH)3],log Ksp,[1]; metal hydroxides,−32.7
O=P([O-])([O-])[O-].[Al+3] [AlPO4],log Ksp,[1]; metal phosphates,−20.0
[Ce+3].[OH-].[OH-].[OH-] [Ce(OH)3],log Ksp,[1]; metal hydroxides,−22.3
[Ce+4].[OH-].[OH-].[OH-].[OH-] [Ce(OH)4],log Ksp,[1]; metal hydroxides,−47.7
O=P([O-])([O-])[O-].[Ce+3] [CePO4],log Ksp,[1]; metal phosphates,−26.2
O=P([O-])([O-])[O-].O=P([O-])([O-])[O-].[Cu+2].[Cu+2].[Cu+2] [Cu3(PO4)2],log Ksp,[1]; metal phosphates,−36.9
[Cu+2].[OH-].[OH-] [Cu(OH)2],log Ksp,[1]; metal hydroxides,−19.3
O=S(=O)([O-])[O-].[Cu+2] [CuSO4],Growth of Chlorella vulgaris (bottom pellicle formation),Chlorella vulgaris; 0.25 ppm test compound,++
same,Growth of Chlorella vulgaris (bottom pellicle formation),Chlorella vulgaris; 0.5 ppm test compound,++
same,Growth of Chlorella vulgaris (bottom pellicle formation),Chlorella vulgaris; 1 ppm test compound,+
same,Growth of Chlorella vulgaris (bottom pellicle formation),Chlorella vulgaris; 2 ppm test compound,−
same,Growth of Chlorella vulgaris (bottom pellicle formation),Chlorella vulgaris; 4 ppm test compound,−
same,Growth of Chlorella vulgaris (bottom pellicle formation),Chlorella vulgaris; 8 ppm test compound,−
same,Growth of Chlorella vulgaris (bottom pellicle formation),Chlorella vulgaris; 16 ppm test compound,−
same,Growth of Chlorella vulgaris (bottom pellicle formation),Chlorella vulgaris; 32 ppm test compound,−
same,Growth of Chlorella vulgaris (bottom pellicle formation),Chlorella vulgaris; 64 ppm test compound,−
CCCCCCCCCCCCN.Cl [Dodecylamine HCl],Growth of Chlorella vulgaris (bottom pellicle formation),Chlorella vulgaris; 0.25 ppm test compound,−
same,Growth of Chlorella vulgaris (bottom pellicle formation),Chlorella vulgaris; 0.5 ppm test compound,−
same,Growth of Chlorella vulgaris (bottom pellicle formation),Chlorella vulgaris; 1 ppm test compound,−
same,Growth of Chlorella vulgaris (bottom pellicle formation),Chlorella vulgaris; 2 ppm test compound,−
same,Growth of Chlorella vulgaris (bottom pellicle formation),Chlorella vulgaris; 4 ppm test compound,−
same,Growth of Chlorella vulgaris (bottom pellicle formation),Chlorella vulgaris; 8 ppm test compound,−
same,Growth of Chlorella vulgaris (bottom pellicle formation),Chlorella vulgaris; 16 ppm test compound,−
same,Growth of Chlorella vulgaris (bottom pellicle formation),Chlorella vulgaris; 32 ppm test compound,−
same,Growth of Chlorella vulgaris (bottom pellicle formation),Chlorella vulgaris; 64 ppm test compound,−
[La+3].[OH-].[OH-].[OH-] [La(OH)3],log Ksp,[1]; metal hydroxides,−18.5
O=P([O-])([O-])[O-].[La+3] [LaPO4],log Ksp,[1]; metal phosphates,−25.7
[OH][Sn][OH] [Sn(OH)2],log Ksp,[1]; metal hydroxides,−26.5
O=P([O-])([O-])[O-].O=P([O-])([O-])[O-].[Zn+2].[Zn+2].[Zn+2] [Zn3(PO4)2],log Ksp,[1]; metal phosphates,−35.3
[OH-].[OH-].[Zn+2] [Zn(OH)2],log Ksp,[1]; metal hydroxides,−16.5
[Cl][La]([Cl])[Cl] [lanthanum chloride],Turbidity reduction,[2]; Example 5: within two hours of beginning filtration (diatomaceous earth),97%
same,phosphate removed,[3],≥ 90%
[Cl-].[Cl-].[Zn+2] [zinc chloride],phosphate reduction,"[2]; Example 7: start approx. 1.0 ppm phosphate, within 3 hours, sand filtration",more than 90%
Zinc borate,Growth of Chlorella vulgaris (bottom pellicle formation),Chlorella vulgaris; 0.25 ppm test compound,+
same,Growth of Chlorella vulgaris (bottom pellicle formation),Chlorella vulgaris; 0.5 ppm test compound,+
same,Growth of Chlorella vulgaris (bottom pellicle formation),Chlorella vulgaris; 1 ppm test compound,−
same,Growth of Chlorella vulgaris (bottom pellicle formation),Chlorella vulgaris; 2 ppm test compound,−
same,Growth of Chlorella vulgaris (bottom pellicle formation),Chlorella vulgaris; 4 ppm test compound,−
same,Growth of Chlorella vulgaris (bottom pellicle formation),Chlorella vulgaris; 8 ppm test compound,−
same,Growth of Chlorella vulgaris (bottom pellicle formation),Chlorella vulgaris; 16 ppm test compound,−
same,Growth of Chlorella vulgaris (bottom pellicle formation),Chlorella vulgaris; 32 ppm test compound,−
same,Growth of Chlorella vulgaris (bottom pellicle formation),Chlorella vulgaris; 64 ppm test compound,−
